Test results from the CheMixHub ionic liquid set.
± gives the uncertainty stated by the source.

Test: xn = mol fraction of the nth substance listed
Settings: 101 kPa

CCC(=O)[O-].CC[NH+]1CCNCC1 + CCCO
Settings	viscosity [mPa·s]
298.15 K, x2 = 0.4017	47.45 ± 0.8
308.15 K, x2 = 0.3041	39.45 ± 0.67

CCCCCCCCn1cc[n+](C)c1.[Cl-] + CCCO
Settings	viscosity [mPa·s]
298.15 K, x2 = 0	21000
298.15 K, x2 = 0.7248	19.25 ± 0.49
298.15 K, x2 = 0.9024	4.6 ± 0.13
313.15 K, x2 = 0.407	160 ± 17
328.15 K, x2 = 0	1091 ± 300
328.15 K, x2 = 0.1071	560 ± 120
328.15 K, x2 = 0.2407	231 ± 32
328.15 K, x2 = 0.3036	144 ± 14
328.15 K, x2 = 0.6209	17.73 ± 0.45
328.15 K, x2 = 0.7248	8.25 ± 0.22
328.15 K, x2 = 0.94	1.679 ± 0.051
328.15 K, x2 = 0.9729	1.372 ± 0.043

CC[n+]1ccn(C)c1.N#C[S-] + CCCO
viscosity [mPa·s]
Settings	283.15 K	293.15 K	303.15 K	313.15 K	323.15 K
x1 = 0.0494	3.32 ± 0.07	2.6 ± 0.07	2.07 ± 0.07	1.68 ± 0.07	1.38 ± 0.07
x1 = 0.0994	4.04 ± 0.08	3.12 ± 0.07	2.47 ± 0.07	1.99 ± 0.07	1.63 ± 0.07
x1 = 0.1997	5.49 ± 0.08	4.24 ± 0.08	3.4 ± 0.07	2.63 ± 0.07	2.17 ± 0.07
x1 = 0.3015	7.06 ± 0.09	5.36 ± 0.08	4.21 ± 0.08	3.42 ± 0.07	2.87 ± 0.07
x1 = 0.3996	9.09 ± 0.11	6.89 ± 0.09	5.39 ± 0.08	4.34 ± 0.08	3.58 ± 0.08
x1 = 0.4986	12.1 ± 0.44	9.09 ± 0.11	7.06 ± 0.1	5.65 ± 0.09	4.64 ± 0.08
x1 = 0.5998	15.89 ± 0.46	11.72 ± 0.44	8.97 ± 0.11	7.08 ± 0.1	5.66 ± 0.09
x1 = 0.7008	20.24 ± 0.48	14.76 ± 0.46	10.88 ± 0.13	8.47 ± 0.11	6.81 ± 0.1
x1 = 0.8005	25.11 ± 0.51	17.87 ± 0.47	13.31 ± 0.45	10.27 ± 0.13	8.17 ± 0.11
x1 = 0.9002	30.71 ± 0.56	21.99 ± 0.5	16.11 ± 0.47	12.25 ± 0.45	9.62 ± 0.13
x1 = 0.946	34.98 ± 0.6	24.14 ± 0.52	17.68 ± 0.48	13.52 ± 0.46	10.63 ± 0.14
x1 = 1	38.41 ± 0.64	26.31 ± 0.54	19.03 ± 0.49	14.3 ± 0.46	11.1 ± 0.45
